The record followed here is the supplement of paper PMC11061612.

Assay [1] deals with A673 (Ewing's Sarcoma). As to the kind of experiment: Bliss excess, mean over the matrix (fraction); higher = more synergy. A digest of the protocol: (§1)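 After 24 hours at 37°C and 5% CO2 in 1536-well plates, cells in DMEM/F12 or RPMI plus 10% FBS received two-drug dose matrices for 72 hours. Viability came from CellTiter-Glo 2.0 luminescence and was scaled as inhibition, anchored at 0 by vehicle wells and at 1 by blank wells. Combination Emax is taken as the second-highest inhibition in the matrix, and Bliss excess as the observed combination effect less EA + EB − EA·EB, with EA and EB the single-agent effects.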

The subject of assay [2] is Hs-746T (Gastric Carcinoma). The description is as above. A digest of the protocol:
as §1

Assay [3] relates to LNZTA3WT4 (Low Grade Glioma). The assay is described as above. In short, it runs like this:
as §1

Assay [4] concerns NCI-H209 (Small Cell Lung Carcinoma). The assay is described as above. In short, it runs like this:
as §1

The subject of assay [5] is SW1573 (Lung Adenocarcinoma). The assay is described as above. A digest of the protocol:
as §1

For assay [6], the system named is A673 (Ewing's Sarcoma). As to the kind of experiment: combination Emax (second highest fraction inhibited in the dose matrix, 72 h); higher = more inhibition; extreme values may be limits of the assay. In short, it runs like this: as §1
In assay [7] the test system is BE-13 (T-Lymphoblastic Leukemia). Described as above. In short, it runs like this: as §1
For a further assay, the system named is CAL-72 (Osteosarcoma). The description is as above. In short, it runs like this:
as §1

For assay [8], the system named is ESS-1 (Other Solid Carcinomas). The assay is described as above. A digest of the protocol: as §1
For a further assay, the system named is EW-11 (Ewing's Sarcoma). Described as above. A digest of the protocol:
as §1

In assay [9] the test system is HuCCT1 (Biliary Tract Carcinoma). The assay is described as above. A digest of the protocol:
as §1

Assay [10] deals with KMRC-20 (Kidney Carcinoma). The description is as above. A digest of the protocol: as §1
The subject of assay [11] is KYAE-1 (Esophageal Adenocarcinoma). Described as above. In short, it runs like this:
as §1

The test system of assay [12] is LS-123 (Colorectal Carcinoma). The description is as above. In short, it runs like this:
as §1

The next assay deals with NCI-H2052 (Mesothelioma). The description is as above. In short, it runs like this: as §1
Assay [13] has as its system NUGC-4 (Gastric Carcinoma). The description is as above. In short, it runs like this:
as §1

Assay [14] concerns OE21 (Esophageal Squamous Cell Carcinoma). The assay is described as above. A digest of the protocol:
as §1

Assay [15] concerns SAS (Oral Cavity Carcinoma). The assay is described as above. A digest of the protocol: as §1
Assay [16] concerns SW1710 (Bladder Carcinoma). Described as above. In short, it runs like this: as §1
Assay [17] has as its system WSU-NHL (B-Cell Non-Hodgkin's Lymphoma). Described as above. A digest of the protocol: as §1
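For Bliss excess, mean over the matrix in this document: after 72 h of two-drug dosing.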

Regarding `CN(C)CCCOc1ccc(-c2ccc3ncc4c(c3c2)n(C2CCOCC2)c(=O)n4C)cn1` [AZD0156] + C=CCn1c(=O)c2cnc(Nc3ccc(N4CCN(C)CC4)cc3)nc2n1-c1cccc(C(C)(C)O)n1 [AZD1775] (first compound max 1 µM, partner max 1 µM), the Bliss excess in the assay on A673 (Ewing's Sarcoma) [1] was 0.0342; in assay [2] it was -0.0305; in assay [3] it was -0.0561; in assay [4], -0.0624; in assay [5] it was -0.0423. The “combination Emax” value in the assay with A673 (Ewing's Sarcoma) [6] amounted to 0.564; in [7] it was 0.964; in the assay with CAL-72 (Osteosarcoma) it was 0.778; in assay [8] it was 0.973; with EW-11 (Ewing's Sarcoma), 0.486; in assay [9], 0.717. In addition, the “combination Emax” value worked out at 0.596 in assay [10]; 0.426 in [11]; 0.609 in assay [12]; 0.376 in the assay with NCI-H2052 (Mesothelioma); 0.273 in assay [13]; 0.567 in assay [14]. Also, the “combination Emax” value in assay [15] came to 0.548; in assay [16] it was 0.337; in assay [17], 0.948.
For `CN(C)CCCOc1ccc(-c2ccc3ncc4c(c3c2)n(C2CCOCC2)c(=O)n4C)cn1` [AZD0156] + CCN(CCO)CCCOc1ccc2c(Nc3cc(CC(=O)Nc4cccc(F)c4)[nH]n3)ncnc2c1 [AZD2811] (first compound max 1 µM, 7x7, partner max 1 µM), the Bliss excess was 0.0262 in the assay on A673 (Ewing's Sarcoma) [1]; -0.0747 in assay [2]; -0.0162 in assay [3]; 0.0922 in assay [4]; -0.0205 in assay [5]. For the same molecule, the “combination Emax” value in the assay on A673 (Ewing's Sarcoma) [6] was found to be 0.75; in [7], 0.674; in the assay on CAL-72 (Osteosarcoma) it was 0.286; in [8], 0.606; in the assay with EW-11 (Ewing's Sarcoma) it was 0.409; in [9], 0.137. Moreover, the “combination Emax” value in assay [10] turned out to be 0.128; in assay [11] it was 0.103; in [12], 0.161; in the assay with NCI-H2052 (Mesothelioma) it was 0.284; in assay [13] it was 0.0855; in assay [14], 0.22. Further, the entries for the “combination Emax” value in [15], in assay [16] and in [17] were 0.0904, 0.0832 and 0.879, respectively.
Regarding `C=CCn1c(=O)c2cnc(Nc3ccc(N4CCN(C)CC4)cc3)nc2n1-c1cccc(C(C)(C)O)n1` [AZD1775] + C1CN(CCC1(C(=O)N[C@@H](CCO)C2=CC=C(C=C2)Cl)N)C3=NC=NC4=C3C=CN4 [Capivasertib] (first compound max 3 µM, partner max 3 µM), the Bliss excess is 0.018 with A673 (Ewing's Sarcoma) [1], 0.031 in [2], -0.0111 in assay [3] and -0.0229 in assay [5]. Moreover, the “combination Emax” value in the assay with A673 (Ewing's Sarcoma) [6] was 0.526; in assay [7], 0.968; in the assay with CAL-72 (Osteosarcoma) it was 0.845; in assay [8], 0.949; in the assay with EW-11 (Ewing's Sarcoma), 0.69; in [9], 0.741. Further, the “combination Emax” value was 0.711 in [10]; 0.579 in [11]; 0.636 in assay [12]; 0.518 with NCI-H2052 (Mesothelioma); 0.574 in assay [13]; 0.747 in [14]. For the same molecule, the “combination Emax” value in assay [15] worked out at 0.798; in assay [16], 0.475; in assay [17], 1.
Take `CN(CCO)CC[C@H](CSc1ccccc1)Nc1ccc(S(=O)(=O)NC(=O)c2ccc(N3CCC([C@@H](O)c4ccccc4-c4ccc(Cl)cc4)CC3)cc2)cc1S(=O)(=O)C(F)(F)F` [AZD4320] + C1CN(CCC1(C(=O)N[C@@H](CCO)C2=CC=C(C=C2)Cl)N)C3=NC=NC4=C3C=CN4 [Capivasertib] (first compound max 1 µM, 7x7, partner max 3 µM): the Bliss excess with A673 (Ewing's Sarcoma) [1] was 0.0099; in [2], 0.0094; in assay [3], -0.0176; in assay [4], -0.0057; in assay [5], -0.0614. Further, the “combination Emax” value came out at 0.905 in the assay on A673 (Ewing's Sarcoma) [6]; 0.994 in assay [7]; 0.315 in the assay with CAL-72 (Osteosarcoma); 0.579 in assay [8]; 0.837 in the assay with EW-11 (Ewing's Sarcoma); 0.121 in assay [9]. For the same molecule, the “combination Emax” value in [10] was determined as 0.245; in [11], 0.65; in the assay on NCI-H2052 (Mesothelioma) it was 0.229; in assay [13], 0.0873; in assay [14], 0.441; in assay [15], 0.132. In addition, the “combination Emax” value worked out at 0.302 in assay [16] and 1 in [17].
`CN(CCO)CC[C@H](CSc1ccccc1)Nc1ccc(S(=O)(=O)NC(=O)c2ccc(N3CCC([C@@H](O)c4ccccc4-c4ccc(Cl)cc4)CC3)cc2)cc1S(=O)(=O)C(F)(F)F` [AZD4320] + C=CCn1c(=O)c2cnc(Nc3ccc(N4CCN(C)CC4)cc3)nc2n1-c1cccc(C(C)(C)O)n1 [AZD1775] (first compound max 1 µM, partner max 1 µM): the Bliss excess in the assay on A673 (Ewing's Sarcoma) [1] was 0.082; in assay [2] it was -0.0054; in assay [3], -0.0201; in [4], 0.0963; in assay [5], 0.0152. Further, the “combination Emax” value in the assay with A673 (Ewing's Sarcoma) [6] was 1; in assay [7], 1; in the assay on CAL-72 (Osteosarcoma), 0.782; in assay [8], 1; in the assay with EW-11 (Ewing's Sarcoma), 0.949; in assay [9], 0.807. The “combination Emax” value in [10] worked out at 0.61; in [11] it was 0.843; with NCI-H2052 (Mesothelioma), 0.374; in [13] it was 0.374; in assay [14], 0.641; in [15], 0.647. Besides, the “combination Emax” value turned out to be 0.418 in [16] and 0.995 in [17].
Turning to `CN(CCO)CC[C@H](CSc1ccccc1)Nc1ccc(S(=O)(=O)NC(=O)c2ccc(N3CCC([C@@H](O)c4ccccc4-c4ccc(Cl)cc4)CC3)cc2)cc1S(=O)(=O)C(F)(F)F` [AZD4320] + CCN(CCO)CCCOc1ccc2c(Nc3cc(CC(=O)Nc4cccc(F)c4)[nH]n3)ncnc2c1 [AZD2811] (first compound max 1 µM, 7x7, partner max 1 µM), the Bliss excess with A673 (Ewing's Sarcoma) [1] is 0.0819; in [2], -0.0095; in assay [3], -0.0224; in [4], 0.184; in [5] it was 0.004. Besides, the “combination Emax” value with A673 (Ewing's Sarcoma) [6] stood at 1; in [7] it was 1; in the assay on CAL-72 (Osteosarcoma), 0.373; in assay [8], 0.923; with EW-11 (Ewing's Sarcoma), 0.865; in assay [9], 0.136. Moreover, the “combination Emax” value in [10] is 0.256; in assay [11], 0.496; with NCI-H2052 (Mesothelioma) it was 0.128; in [13] it was 0.215; in assay [14] it was 0.111; in assay [15] it was 0.105. Also, the “combination Emax” value is 0.154 in assay [16] and 0.785 in [17].
